Legend:
[1] = tested on: recombinant NL4-3 virus; experiment: HIV cell culture assay (antiviral activity, luciferase readout); type: cell-based; conditions: Human immunodeficiency virus 1, NL43, MT2, MT-2 cells infected for 4-5 days with recombinant NL4-3 virus carrying Renilla luciferase
Outline: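 MT-2 cells infected for 4-5 days with NL4-3 reference virus carrying Renilla luciferase in place of part of nef, in presence of serial compound dilutions. Luciferase read with live-cell substrate; EC50 from median effect equation fit.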

[2] = Compound cytotoxicity, XTT-based colorimetric assay; type: cell-based; conditions: human; uninfected MT2 cells, day 4, XTT assay
Outline: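 Run under the antiviral-assay protocol but without virus. Viability was read on day 4 and CC50 values were derived from the readout.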

Compound	EC50 [1]	CC50 at 4 day [2]
Cn1nc(NS(C)(=O)=O)c2c(Cl)ccc(-n3c([C@H](Cc4cc(F)cc(F)c4)NC(=O)Cn4nc(C(F)F)c5c4C(F)(F)[C@@H]4C[C@H]54)nc4nc(-c5ccnn5CC5CC5)ccc4c3=O)c21 (atropisomer, axis not shown; (P)) [Example 78, N-((S)-1-((3P)-3-(4-chloro-1-methyl-3-(methylsulfonamido)-1H-indazol-7-yl)-7-(1-(cyclopropylmethyl)-1H-pyrazol-5-yl)-4-oxo-3,4-dihydropyrido[2,3-d]pyrimidin-2-yl)-2-(3,5-difluorophenyl)ethyl)-2-((3bS,4aR)-3-(difluoromethyl)-5,5-difluoro-3b,4,4a,5-tetrahydro-1H-cyclopropa[3,4]cyclopenta[1,2-c]pyrazol-1-yl)acetamide]	0.09 nM	> 100 nM
Cn1nc(NS(C)(=O)=O)c2c(Cl)ccc(-n3c([C@H](Cc4cc(F)cc(F)c4)NC(=O)Cn4nc(C(F)F)c5c4C(F)(F)[C@@H]4C[C@H]54)nc4nc(-c5nccc(C(F)F)n5)ccc4c3=O)c21 (atropisomer, axis not shown; (P)) [Example 6, N-((S)-1-((3P)-3-(4-chloro-1-methyl-3-(methylsulfonamido)-1H-indazol-7-yl)-7-(4-(difluoromethyl)pyrimidin-2-yl)-4-oxo-3,4-dihydropyrido[2,3-d]pyrimidin-2-yl)-2-(3,5-difluorophenyl)ethyl)-2-((3bS,4aR)-3-(difluoromethyl)-5,5-difluoro-3b,4,4a,5-tetrahydro-1H-cyclopropa[3,4]cyclopenta[1,2-c]pyrazol-1-yl)acetamide]	0.023 nM	> 100 nM
Cn1nc(NS(C)(=O)=O)c2c(Cl)ccc(-n3c([C@H](Cc4cc(F)cc(F)c4)NC(=O)Cn4nc(C(F)F)c5c4C(F)(F)[C@@H]4C[C@H]54)nc4nc(-c5ccc(S(C)(=O)=O)cc5)ccc4c3=O)c21 (atropisomer, axis not shown; (P)) [Example 35, N-((S)-1-((3P)-3-(4-chloro-1-methyl-3-(methylsulfonamido)-1H-indazol-7-yl)-7-(4-(methylsuIfonyl)phenyl)-4-oxo-3,4-dihydropyrido[2,3-d]pyrimidin-2-yl)-2-(3,5-difluorophenyl)ethyl)-2-((3bS,4aR)-3-(difluoromethyl)-5,5-difluoro-3b,4,4a,5-tetrahydro-1H-cyclopropa[3,4]cyclopenta[1,2-c]pyrazol-1-yl)acetamide]	0.14 nM	> 100 nM
Cn1nc(NS(C)(=O)=O)c2c(Cl)ccc(-n3c([C@H](Cc4cc(F)cc(F)c4)NC(=O)Cn4nc(C(F)F)c5c4C(F)(F)[C@@H]4C[C@H]54)nc4nc(-c5csc(C(C)(C)O)n5)ccc4c3=O)c21 (atropisomer, axis not shown; (P)) [Example 91, N-((S)-1-((3P)-3-(4-chloro-1-methyl-3-(methylsulfonamido)-1H-indazol-7-yl)-7-(2-(2-hydroxypropan-2-yl)thiazol-4-yl)-4-oxo-3,4-dihydropyrido[2,3-d]pyrimidin-2-yl)-2-(3,5-difluorophenyl)ethyl)-2-((3bS,4aR)-3-(difluoromethyl)-5,5-difluoro-3b,4,4a,5-tetrahydro-1H-cyclopropa[3,4]cyclopenta[1,2-c]pyrazol-1-yl)acetamide]	0.037 nM	> 100 nM
Cn1nc(NS(C)(=O)=O)c2c(Cl)ccc(-n3c([C@H](Cc4cc(F)cc(F)c4)NC(=O)Cn4nc(C(F)F)c5c4C(F)(F)[C@@H]4C[C@H]54)nc4nc(-c5cc(C(F)(F)F)ccn5)ccc4c3=O)c21 (atropisomer, axis not shown; (P)) [Example 16, N-((S)-1-((3P)-3-(4-chloro-1-methyl-3-(methylsulfonamido)-1H-indazol-7-yl)-4-oxo-7-(4-(trifluoromethyl)pyridin-2-yl)-3,4-dihydropyrido[2,3-d]pyrimidin-2-yl)-2-(3,5-difluorophenyl)ethyl)-2-((3bS,4aR)-3-(difluoromethyl)-5,5-difluoro-3b,4,4a,5-tetrahydro-1H-cyclopropa[3,4]cyclopenta[1,2-c]pyrazol-1-yl)acetamide]	0.052 nM	> 100 nM
Cn1nc(NS(C)(=O)=O)c2c(Cl)ccc(-n3c([C@H](Cc4cc(F)cc(F)c4)NC(=O)Cn4nc(C(F)F)c5c4C(F)(F)[C@@H]4C[C@H]54)nc4nc(-c5cccc(Cl)n5)ccc4c3=O)c21 (atropisomer, axis not shown; (P)) [Example 50, N-((S)-1-((3P)-3-(4-chloro-1-methyl-3-(methylsulfonamido)-1H -indazol-7-yl)-7-(6-chloropyridin-2-yl)-4-oxo-3,4-dihydropyrido[2,3-d]pyrimidin-2-yl)-2-(3,5-difluorophenyl)ethyl)-2-((3bS,4aR)-3-(difluoromethyl)-5,5-difluoro-3b,4,4a,5-tetrahydro-1H-cyclopropa[3,4]cyclopenta[1,2-c]pyrazol-1-yl)acetamide]	0.056 nM	> 100 nM
Cn1nc(NS(C)(=O)=O)c2c(Cl)ccc(-n3c([C@H](Cc4cc(F)cc(F)c4)NC(=O)Cn4nc(C(F)F)c5c4C(F)(F)[C@@H]4C[C@H]54)nc4nc(-c5ccnnc5)ccc4c3=O)c21 (atropisomer, axis not shown; (P)) [Example 33, N-((S)-1-((3P)-3-(4-chloro-1-methyl-3-(methylsulfonamido)-1H-indazol-7-yl)-4-oxo-7-(pyridazin-4-yl)-3,4-dihydropyrido[2,3-d]pyrimidin-2-yl)-2-(3,5-difluorophenyl)ethyl)-2-((3bS,4aR)-3-(difluoromethyl)-5,5-difluoro-3b,4,4a,5-tetrahydro-1H-cyclopropa[3,4]cyclopenta[1,2-c]pyrazol-1-yl)acetamide]	0.45 nM	> 100 nM
Cn1nc(NS(C)(=O)=O)c2c(Cl)ccc(-n3c([C@H](Cc4cc(F)cc(F)c4)NC(=O)Cn4nc(C(F)F)c5c4C(F)(F)[C@@H]4C[C@H]54)nc4nc(-c5nccc(C(F)(F)F)n5)ccc4c3=O)c21 (atropisomer, axis not shown; (P)) [Example 5, N-((S)-1-((3P)-3-(4-chloro-1-methyl-3-(methylsulfonamido)-1H-indazol-7-yl)-4-oxo-7-(4-(trifluoromethyl)pyrimidin-2-yl)-3,4-dihydropyrido[2,3-d]pyrimidin-2-yl)-2-(3,5-difluorophenyl)ethyl)-2-((3bS,4aR)-3-(difluoromethyl)-5,5-difluoro-3b,4,4a,5-tetrahydro-1H-cyclopropa[3,4]cyclopenta[1,2-c]pyrazol-1-yl)acetamide]	0.021 nM	> 100 nM
Cn1nc(NS(C)(=O)=O)c2c(Cl)ccc(-n3c([C@H](Cc4cc(F)cc(F)c4)NC(=O)Cn4nc(C(F)F)c5c4C(F)(F)[C@@H]4C[C@H]54)nc4nc(-c5cc(C(F)(F)F)n(CC(C)(F)F)n5)ccc4c3=O)c21 (single isomer, unassigned) [Example 94]	0.16 nM	> 100 nM
Cn1nc(NS(C)(=O)=O)c2c(Cl)ccc(-n3c([C@H](Cc4cc(F)cc(F)c4)NC(=O)Cn4nc(C(F)F)c5c4C(F)(F)[C@@H]4C[C@H]54)nc4nc(-c5ccc(OC(F)F)cc5)ccc4c3=O)c21 (atropisomer, axis not shown; (P)) [Example 27, N-((S)-1-((3P)-3-(4-chloro-1-methyl-3-(methylsulfonamido)-1H-indazol-7-yl)-7-(4-(difluoromethoxy)phenyl)-4-oxo-3,4-dihydropyrido[2,3-d]pyrimidin-2-yl)-2-(3,5-difluorophenyl)ethyl)-2-((3bS,4aR)-3-(difluoromethyl)-5,5-difluoro-3b,4,4a,5-tetrahydro-1H-cyclopropa[3,4]cyclopenta[1,2-c]pyrazol-1-yl)acetamide]	0.34 nM	> 100 nM
Cc1ccnc(-c2ccc3c(=O)n(-c4ccc(Cl)c5c(NS(C)(=O)=O)nn(C)c45)c([C@H](Cc4cc(F)cc(F)c4)NC(=O)Cn4nc(C(F)F)c5c4C(F)(F)[C@@H]4C[C@H]54)nc3n2)c1 (atropisomer, axis not shown; (P)) [Example 49, N-((S)-1-((3P)-3-(4-chloro-1-methyl-3-(methylsulfonamido)-1H-indazol-7-yl)-7-(4-methylpyridin-2-yl)-4-oxo-3,4-dihydropyrido[2,3-d]pyrimidin-2-yl)-2-(3,5-difluorophenyl)ethyl)-2-((3bS,4aR)-3-(difluoromethyl)-5,5-difluoro-3b,4,4a,5-tetrahydro-1H-cyclopropa[3,4]cyclopenta[1,2-c]pyrazol-1-yl)acetamide]	0.018 nM	> 100 nM
Cn1nc(NS(C)(=O)=O)c2c(Cl)ccc(-n3c([C@H](Cc4cc(F)cc(F)c4)NC(=O)Cn4nc(C(F)F)c5c4C(F)(F)[C@@H]4C[C@H]54)nc4nc(-c5cccc(OC(F)(F)F)c5)ccc4c3=O)c21 (atropisomer, axis not shown; (P)) [Example 21, N-((S)-1-((3P)-3-(4-chloro-1-methyl-3-(methylsulfonamido)-1H-indazol-7-yl)-4-oxo-7-(3-(trifluoromethoxy)phenyl)-3,4-dihydropyrido[2,3-d]pyrimidin-2-yl)-2-(3,5-difluorophenyl)ethyl)-2-((3bS,4aR)-3-(difluoromethyl)-5,5-difluoro-3b,4,4a,5-tetrahydro-1H-cyclopropa[3,4]cyclopenta[1,2-c]pyrazol-1-yl)acetamide]	0.39 nM	> 100 nM

Reference: patent US20220389007A1, “INHIBITORS OF HUMAN IMMUNODEFICIENCY VIRUS REPLICATION” (VIIV HEALTHCARE UK (No. 5) LIMITED, priority 2019, published 2022)
